Source: patent US20240148821A1, “PHARMACEUTICAL USE OF CYCLIC PEPTIDE COMPOUND” (CHUGAI SEIYAKU KABUSHIKI KAISHA, priority 2021, published 2024)
Numbered stars: 1 amine (or outer) side, 2 acyl side, 3 side chain; on linkers, the order of the positions; unused ones are H or OH. Bridge positions count the residues as written; N and C are the ends. Square brackets hold non-standard residues; d marks the D form. Peptide text beside a SMILES is read from it. * marks the point of attachment. hPhe(3,5-F2-4-CF3) = N[C@@H](CCc1cc(F)c(C(F)(F)F)c(F)c1)C(=O)O; hPhe(3-Cl-4-CF3) = N[C@@H](CCc1ccc(C(F)(F)F)c(Cl)c1)C(=O)O; NMePhe(4-CF3) = CN[C@@H](Cc1ccc(C(F)(F)F)cc1)C(=O)O; Piperazinyl(4-(3-oxetanyl)) = C1OCC1N1CCN(*)CC1; Thiomorpholino(1,1-dioxo) = O=S1(=O)CCN(*)CC1; NMeAbu(4,4,4-F3) = CN[C@@H](CC(F)(F)F)C(=O)O; NMePhe(4-Cl) = CN[C@@H](Cc1ccc(Cl)cc1)C(=O)O; NMePhe(4-Me) = CN[C@@H](Cc1ccc(C)cc1)C(=O)O; X40 = O=C([C@H](Cc1cc(I)ccc1F)N[*:1])[*:2]; NMeGly(cPent) = CN[C@H](C(=O)O)C1CCCC1; Phe(3-I) = N[C@@H](Cc1cccc(I)c1)C(=O)O; Pro(4,4-F2) = O=C(O)[C@@H]1CC(F)(F)CN1; NMeGly(cBu) = CN[C@H](C(=O)O)C1CCC1; NMeY = CN[C@@H](Cc1ccc(O)cc1)C(=O)O; NMeCha = CN[C@@H](CC1CCCCC1)C(=O)O; NMehLeu = CN[C@@H](CCC(C)C)C(=O)O; NEtLeu = CCN[C@@H](CC(C)C)C(=O)O; NMeChg = CN[C@H](C(=O)O)C1CCCCC1; NMeI = CC[C@H](C)[C@H](NC)C(=O)O; NMeD = CN[C@@H](CC(=O)O)C(=O)O; NMeL = CN[C@@H](CC(C)C)C(=O)O; NMeNva = CCC[C@H](NC)C(=O)O; NMeV = CN[C@H](C(=O)O)C(C)C; NMeA = CN[C@@H](C)C(=O)O; NMeAib = CNC(C)(C)C(=O)O; Nle = CCCC[C@H](N)C(=O)O; Piperidide = C1CCN(*)CC1; Pra = C#CC[C@H](N)C(=O)O; Pyrrolidide = C1CCN(*)C1; Ac5c = NC1(C(=O)O)CCCC1; Aze = O=C(O)[C@@H]1CCN1; CF3 = FC(F)(F)*; Sar = CNCC(=O)O

What follows are compounds tested on Human pancreatic cancer cell line AsPC-1 (G12D mutation Kras) (assay: AsPC-1 cell growth inhibition (AsPC-1 CGI)). Conditions: read-out: AsPC-1 cell growth inhibition, 50% growth inhibitory concentration (IC50 value); 96 hours, CellTiter-Glo, values classified in ranges.
Format: cell-based
Description: Test compounds were serially dilated with dimethyl sulfoxide, and 200 nL was then dispensed to a U-bottom 96-well plate using Labcyte Echo. […] The cell suspension was dispensed to a. plate containing a test compound at 100 μL per well and incubated at 37° C. in a 5% carbon dioxide gas incubator. 96 hours later, 80 μL of CellTiter-Glo (Promega) was added to each well and fluorescence was measured.

Structure (SMILES)	IC50 [µM]
CC[C@H](C)[C@@H]1NC(=O)[C@H](CC(C)C)N(C)C(=O)C[C@@H](C(=O)N2CCS(=O)(=O)CC2)NC(=O)[C@H]([C@@H](C)CC)N(C)C(=O)C2(CCCC2)NC(=O)[C@@H]2CCCN2C(=O)[C@H](CCc2ccc(C(F)(F)F)c(Cl)c2)NC(=O)CN(C)C(=O)[C@H](CC2CCCCC2)N(C)C(=O)CN(C)C(=O)CN(C)C1=O [Compound 1279] ([NMeL]I[Sar][Sar][NMeCha][Sar][hPhe(3-Cl-4-CF3)]P[Ac5c][NMeI]D-{Thiomorpholino(1,1-dioxo)}; lactam N-11)	> 0.5
CC[C@H](C)[C@@H]1NC(=O)[C@H](CC(F)(F)F)N(C)C(=O)C[C@@H](C(=O)N2CCCC2)N(C)C(=O)[C@H](C2CCCCC2)N(C)C(=O)C2(CCCC2)NC(=O)[C@@H]2CC(F)(F)CN2C(=O)[C@H](CCc2cc(F)c(C(F)(F)F)c(F)c2)NC(=O)CN(C)C(=O)[C@H](CC2CCCCC2)N(C)C(=O)CN(C)C(=O)CN(C)C1=O [Compound 1281] ([NMeAbu(4,4,4-F3)]I[Sar][Sar][NMeCha][Sar][hPhe(3,5-F2-4-CF3)][Pro(4,4-F2)][Ac5c][NMeChg][NMeD]-Pyrrolidide; lactam N-11)	≤ 0.02
CC[C@H](C)[C@@H]1NC(=O)[C@H](CC(C)C)N(CC)C(=O)C[C@@H](C(=O)N(C)C)N(C)C(=O)[C@H](C2CCCC2)N(C)C(=O)C2(CCCC2)NC(=O)[C@@H]2CCCN2C(=O)[C@H](CCc2ccc(C(F)(F)F)c(Cl)c2)NC(=O)CN(C)C(=O)[C@H](Cc2ccc(C)cc2)N(C)C(=O)[C@@H]2CCN2C(=O)[C@H](C)NC1=O [Compound 1282] ([NEtLeu]IA[Aze][NMePhe(4-Me)][Sar][hPhe(3-Cl-4-CF3)]P[Ac5c][NMeGly(cPent)][NMeD]-NMe2; lactam N-11)	≤ 0.02
CCCC[C@@H]1NC(=O)[C@H](Cc2cc(I)ccc2F)NC(=O)CN(C)C(=O)[C@H](Cc2ccc(Cl)cc2)N(C)C(=O)CN(C)C(=O)CN(C)C(=O)[C@H]([C@@H](C)CC)NC(=O)[C@H](CC(C)C)N(C)C(=O)C[C@@H](C(=O)N2CCCCC2)N(C)C(=O)[C@H](CC(C)C)NC(=O)C(C)(C)N(C)C1=O [Compound 1286] ([NMeL]I[Sar][Sar][NMePhe(4-Cl)][Sar][X40][Nle][NMeAib]L[NMeD]-Piperidide; lactam N-11)	> 0.5
C#CC[C@@H]1NC(=O)[C@H](Cc2cccc(I)c2)NC(=O)CN(C)C(=O)[C@H](Cc2ccc(OC(F)(F)F)cc2)N(C)C(=O)[C@@H]2CCN2C(=O)[C@H](C)N(C)C(=O)[C@H]([C@@H](C)CC)NC(=O)[C@H](CC(C)C)N(C)C(=O)C[C@@H](C(=O)N2CCCCC2)N(C)C(=O)[C@H](CC(C)C)NC(=O)C(C)(C)N(C)C1=O [Compound 1288] ([NMeL]I[NMeA][Aze][NMeY](CF3)[Sar][Phe(3-I)][Pra][NMeAib]L[NMeD]-Piperidide; lactam N-11)	> 0.5
CC[C@H](C)[C@@H]1NC(=O)[C@H](CCC(C)C)N(C)C(=O)C[C@@H](C(=O)N2CCCC2)N(C)C(=O)[C@H]([C@@H](C)CC)N(C)C(=O)C2(CCCC2)NC(=O)[C@@H]2CCCN2C(=O)[C@H](CCc2ccc(C(F)(F)F)c(Cl)c2)NC(=O)CN(C)C(=O)[C@H](Cc2ccc(C(F)(F)F)cc2)N(C)C(=O)[C@@H]2CCN2C(=O)[C@H](C)N(C)C1=O [Compound 1289] ([NMehLeu]I[NMeA][Aze][NMePhe(4-CF3)][Sar][hPhe(3-Cl-4-CF3)]P[Ac5c][NMeI][NMeD]-Pyrrolidide; lactam N-11)	≤ 0.02
CC[C@H](C)[C@@H]1NC(=O)[C@H](CC(C)C)N(C)C(=O)C[C@@H](C(=O)N2CCN(C3COC3)CC2)NC(=O)[C@H](C(C)C)N(C)C(=O)C2(CCCC2)NC(=O)[C@@H]2CCCN2C(=O)[C@H](CCc2ccc(C(F)(F)F)c(Cl)c2)NC(=O)CN(C)C(=O)[C@H](CC2CCCCC2)N(C)C(=O)[C@@H]2CCN2C(=O)[C@H](C)N(C)C1=O [Compound 1294] ([NMeL]I[NMeA][Aze][NMeCha][Sar][hPhe(3-Cl-4-CF3)]P[Ac5c][NMeV]D-{Piperazinyl(4-(3-oxetanyl))}; lactam N-11)	> 0.5
CC[C@H](C)[C@@H]1NC(=O)[C@H](C2CCC2)N(C)C(=O)C[C@@H](C(=O)N2CCCC2)N(C)C(=O)[C@H](C2CCCCC2)N(C)C(=O)C2(CCCC2)NC(=O)[C@@H]2CC(F)(F)CN2C(=O)[C@H](CCc2cc(F)c(C(F)(F)F)c(F)c2)NC(=O)CN(C)C(=O)[C@H](CC2CCCCC2)N(C)C(=O)CN(C)C(=O)CN(C)C1=O [Compound 1295] ([NMeGly(cBu)]I[Sar][Sar][NMeCha][Sar][hPhe(3,5-F2-4-CF3)][Pro(4,4-F2)][Ac5c][NMeChg][NMeD]-Pyrrolidide; lactam N-11)	≤ 0.02
CCC[C@H]1C(=O)N[C@@H]([C@@H](C)CC)C(=O)N(C)CC(=O)N(C)CC(=O)N(C)[C@@H](Cc2ccc(C)cc2)C(=O)N(C)CC(=O)N[C@@H](CCc2ccc(C(F)(F)F)c(Cl)c2)C(=O)N2CC(F)(F)C[C@H]2C(=O)NC2(CCCC2)C(=O)N(C)[C@@H](C2CCCCC2)C(=O)N(C)[C@H](C(=O)N2CCCC2)CC(=O)N1C [Compound 1296] ([NMeNva]I[Sar][Sar][NMePhe(4-Me)][Sar][hPhe(3-Cl-4-CF3)][Pro(4,4-F2)][Ac5c][NMeChg][NMeD]-Pyrrolidide; lactam N-11)	≤ 0.02
